According to PubChem BioAssay (NCI):
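Briefly, cells in 96-well plates were exposed to five compound concentrations for 48 h, and endpoints were estimated by linear interpolation. At the TGI there is no net growth.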

How the values were obtained:
Experiment in all cases: NCI tumour cell line growth inhibition, 48 h
[1] = tested on: MCF7 breast
[2] = tested on: COLO 205 colon
[3] = tested on: K-562 leukemia
[4] = tested on: OVCAR-4 ovarian
[5] = tested on: OVCAR-5 ovarian
[6] = tested on: UACC-62 melanoma
[7] = tested on: HOP-92 NSCLC
[8] = tested on: UACC-257 melanoma
[9] = tested on: NCI/ADR-RES ovarian
[10] = tested on: KM12 colon

Row | Structure (SMILES) | TGI [1] [µM] | TGI [2] [µM] | TGI [3] [µM] | TGI [4] [µM] | TGI [5] [µM] | TGI [6] [µM] | TGI [7] [µM] | TGI [8] [µM] | TGI [9] [µM] | TGI [10] [µM]
1 | O=S(=O)(c1ccc(-c2nnc(-c3ccc(F)cc3)o2)cc1)c1ccc(-c2nnc(-c3ccc(F)cc3)o2)cc1 | > 100 | > 100 | > 100 | > 100 | > 100 | > 100 | > 100 | > 100 | > 100 | > 100
2 | COc1ccc(C(Cc2ccccc2)C2NC(=S)NC2=O)cc1 (stereo unspecified) | > 25 | > 25 | > 25 | > 25 | > 25 | – | > 25 | > 25 | > 25 | > 25
3 | O=NN(CCF)C(=O)NC1CC2CCC1C2 (stereo unspecified) | > 100 | > 100 | > 100 | > 100 | > 100 | > 100 | > 100 | > 100 | > 100 | > 100
4 | CC(C)(O)C1CC[C@]2(C)[C@H]3CC[C@@H]4[C@@]5(C)CCCC(C)(C)[C@@H]5CC[C@@]4(C)[C@]3(C)CC[C@@H]12 (stereo partly specified) | > 100 | > 100 | – | > 100 | > 100 | > 100 | > 100 | > 100 | > 100 | > 100
5 | Nc1cccc(S(=O)(=O)Nc2nnc(S(N)(=O)=O)s2)c1 | > 100 | > 100 | > 100 | > 100 | > 100 | > 100 | > 100 | – | > 100 | > 100
6 | CN(C)CCNC(=O)c1cccc2cc3cc(O)ccc3nc12 | 6.47 | 3.88 | 11.8 | 6.58 | 4.32 | 2.74 | 3.81 | 2.94 | 11.4 | 10.4
7 | OCC(CCc1ccccc1I)C1=CCC2(CC1)OCCO2 (stereo unspecified) | 55.1 | 34.6 | > 100 | 69.9 | 34.1 | 35.6 | 28.6 | 45.1 | 48 | 31
8 | Oc1ccccc1C1C=C(c2ccccc2)NC(N2CCCCC2)=C1c1nc2ccccc2[nH]1 (stereo unspecified) | 24.9 | 5.81 | > 100 | 30.7 | 32 | 29.8 | 26.9 | 30.7 | 34 | 31.3
9 | CC12CCCCC1=[N+]([O-])C(C)(C)N2O (stereo unspecified) | > 100 | > 100 | – | > 100 | > 100 | > 100 | > 100 | > 100 | > 100 | > 100
10 | NC(Cc1c[nH]c2cc([N+](=O)[O-])ccc12)C(=O)O (stereo unspecified) | > 100 | > 100 | > 100 | > 100 | > 100 | > 100 | > 100 | > 100 | > 100 | > 100
